Consider two molecules from US20250332119A1, “NOVEL ANTI-INFLAMMATORY COMPOSITION AND USE THEREOF” (ASK CO., LTD., priority 2023, published 2025).

Molecules are shown by their SMILES.

One experiment has as its system TNF-α. The experiment is described as follows: TNF-α mRNA expression by Realtime qRT-PCR in LPS-induced macrophages. The note with it: RAW264.7, LPS 24 hours. It counts as cell-based, mouse. The procedure: (§1) To evaluate the inhibitory ability against inflammatory cytokines induced by LPS (lipopolysaccharide), mouse macrophages were used to assess the effect on the production of IL-1α and TNF-α, which are the early-stage inflammatory molecules. The cells used in the experiment were RAW264.7 (Mouse macrophage), which were cultured at 37° C. under 5% CO2 in Dulbecco's modified Eagle's medium (DMEM, Invitrogen) supplemented with 10% fetal bovine serum (FBS, Lonza) and 50 μg/mL streptomycin (Sigma).
(§2) Specifically, the cells were seeded into 6-well plates at a density of 1×10^6 cells/well and cultured at 37° C. in a 5% CO2 incubator for 24 hours. After removing the culture medium, the cells were replaced with fresh medium containing the sample and pre-incubated at 37° C. under 5% CO2 for 30 minutes. Following pretreatment with the sample for 30 minutes, the cells were exposed with LPS for 24 hours to induce an inflammatory response. As a control, cells treated with LPS alone, without sample treatment, were used.
(§3) Total RNA in cells was then extracted from cultured cells using Trizol reagent (Invitrogen, USA) for RNA analysis. The purity and integrity of the RNA were confirmed by measuring the A260 nm/A280 nm ratio, and RNA yield was measured by absorbance at 260 nm.
(§4) For cDNA synthesis, 3 μg of total RNA was mixed with Oligo dT 15 (500 ng/μL) primer, dNTP (10 mM), RTase inhibitor (40 U/μL), and Powerscript II RTase (Clontech, USA), followed by primer annealing at 25° C. for 10 minutes, cDNA synthesis at 42° C. for 60 minutes, and RTase denaturation at 95° C. for 5 minutes. PCR was performed to amplify IL-1α, TNF-α, and GAPDH from cDNA by mixing 3 μL of cDNA, 5 μL of 10×taq polymerase buffer, 2 μL of 10 mM dNTP, 2 μL each of 10 pmol primers, and 0.5 μL of taq polymerase, followed by the addition of distilled water to a final volume of 50 μL.
(§5) The primer sequences used are shown in Table 1, and the PCR process was carried out using the Real-time qRT PCR method with the LightCycler® 96 System (Roche Diagnostics).
(Real-time PCR tracks product formation cycle by cycle.)

Experiment [1] concerns TNF-α, IL-6, IL-1B, and NOS2. The note with it: Food Funct. 2017; 8 (11): 4150-4158; cited from earlier work.
Experiment [2] deals with RAW264.7 (mouse macrophage). The experiment is described as follows: NO production in LPS-induced mouse macrophages (Griess reagent). Conditions: RAW264.7, LPS 1 μg/mL, 24 hours, sample pretreatment 30 minutes, non-cytotoxic concentration range. It counts as cell-based. The procedure:
(§6) To evaluate the inhibitory ability against nitric oxide and PGE2 production induced by LPS (lipopolysaccharide), mouse macrophages were used to assess the effect on the production of nitric oxide (NO) and prostaglandin E2 (PGE2). The cells used in the experiment were RAW264.7 (mouse macrophage), which were cultured in Dulbecco's modified Eagle's medium (DMEM, Invitrogen) supplemented with 10% fetal bovine serum (FBS, Lonza) and 50 μg/mL streptomycin (Sigma) at 37° C. in 5% CO2.
Specifically, the cells were seeded into 96-well plates at a density of 1× 10^5 cells/well and incubated at 37° C. in a 5% CO2 incubator for 24 hours. The culture medium was removed from the cultured cells, and the medium was replaced with a fresh medium containing the test sample and the cells pre-incubated at 37° C. under 5% CO2 for 30 minutes. Following the 30-minute incubation, LPS was added to a final concentration of 1 μg/mL, and the cells were incubated at 37° C. in a 5% CO2 incubator for 24 hours. After incubation, 100 μL of the supernatant was transferred to a new 96-well plate and mixed with an equal volume of a 1:1 mixture of Griess reagent A and B, then 100 μL aliquot of the resulting mixture was dispensed into each well. Immediately after treatment with Griess reagent, absorbance was measured at 540 nm using a microplate reader. The NO production rate (%) of macrophages was calculated using Equation 1 below.
For orientation: The Griess reaction detects nitrite, a stable product of nitric oxide.

In experiment [3] the test system is RAW264.7 (mouse macrophage). Put plainly: PGE2 production in LPS-induced mouse macrophages (ELISA). It counts as cell-based. The note with it: RAW264.7, LPS, 24 hours. As for the experimental part: as §6
In addition, to evaluate the production of PGE2, a procedure similar to that described above was followed. The procedures for treating the cells with the sample and LPS after cell culture were identical. Subsequently, 100 μL aliquots of the supernatant were collected and transferred to a new 96-well plate, and diluted 10- to 20-fold with culture medium. In the NSB (Non-specific binding) wells of the Anti-Mouse IgG plate, 100 μL of culture medium was added. Then, 100 μL each of the standard and diluted supernatant were added to the respective wells, followed by 50 μL of blue PGE2-AP conjugate added to all wells except the blank well. 50 μL of culture medium was added to the NSB wells, and 50 μL of yellow PGE2 antibody was added to all wells except the blank and NSB wells. The plate was then shaken using an orbital shaker at 500 rpm for 2 hours at room temperature (22-25° C.). After 2 hours, the contents of the plate were discarded, and the wells were washed three times with 400 μL of washing buffer. Then, 200 μL of substrate solution was added to each well and the plate was incubated at room temperature (22-25° C.) for 45 minutes. After incubation, 50 μL of stop solution was added to each well, and the absorbance was immediately measured at 405 nm using a microplate reader. The PGE2 production rate (%) of macrophages was calculated using Equations 2 and 3 below.
For orientation: ELISA stands for enzyme-linked immunosorbent assay.

The subject of a further experiment is IL-1α. The experiment is described as follows: IL-1α mRNA expression by Realtime qRT-PCR in LPS-induced macrophages. It counts as cell-based, mouse. The note with it: RAW264.7, LPS 24 hours. The procedure:
as §1, §2, §3, §4, §5

For a further experiment, the system named is macrophages. Conditions: Food Funct. 2017; 8 (11): 4150-4158; cited from earlier work.
The test system of a further experiment is skeletal muscle cells. Conditions: J Biotechnol. 2023; 368:53-59; cited from earlier work.
For experiment [4], the system named is human breast carcinoma cells (MCF-7). Conditions: Planta Med. 2011; 77 (2): 164-8; cited from earlier work.

Turning to `CCCCC/C=C\C/C=C\CCCCCCCC(=O)O` [Assay-5, linoleic acid], the “Relative TNF-α mRNA expression” value with TNF-α is “did not inhibit TNF-α mRNA expression”. For the same molecule, the “expression of proinflammatory cytokines” value in experiment [1] is “suppressing the expression of proinflammatory cytokines including TNF-α, IL-6, IL-1B, and NOS2”. Besides, the NO production result in experiment [2] is reported as “relatively high NO reduction at the lowest concentrations”. Besides, the PGE2 production entry in experiment [3] was “increase in PGE2 production with increasing concentration”; in experiment [3] (listed as linoleic acid), “increased the production of the inflammatory factor PGE2 as its concentration increased”. Further, the “Relative IL-1α mRNA expression” value with IL-1α is given as “tendency toward decreased IL-1α mRNA expression with increasing concentration”. In addition, the “NO production in macrophages” value in the experiment with macrophages was “inhibiting NO production in macrophages”.

With `C=CC(O)C#CC#CC(O)/C=C\CCCCC` (centres unmarked) [Assay-10, (9Z)-1,9-pentadecadiene-4,6-diyne-3,8-diol], the “Relative TNF-α mRNA expression” value in the experiment with TNF-α was “tendency toward decreased expression of both IL-1α and TNF-α mRNA with increasing concentration”; in the experiment with TNF-α (listed as araliadiol), “relatively more reduced by araliadiol compared to linoleic acid”. The “glucose uptake by skeletal muscle cells” value with skeletal muscle cells was “effectively enhance glucose uptake by skeletal muscle cells”. Moreover, the figures for the NO production result in experiment [2] and in experiment [2] (listed as araliadiol) were “relatively high NO reduction at the lowest concentrations” and “higher NO reduction rate than linoleic acid”, respectively. In addition, in experiment [4], the “growth of human breast carcinoma cells (MCF-7)” value is “inhibit the growth of human breast carcinoma cells (MCF-7)”. Moreover, the PGE2 production result is “decrease in PGE2 production with increasing concentration” in experiment [3] and “decreased PGE2 production with increasing concentration” in experiment [3] (listed as araliadiol). Further, the “Relative IL-1α mRNA expression” value with IL-1α is “tendency toward decreased expression of both IL-1α and TNF-α mRNA with increasing concentration”; with IL-1α (listed as araliadiol), “relatively more reduced by araliadiol compared to linoleic acid”.
